Active and inactive are the calls of the source.
Assays:
[1] = molecular target: T1, Histamine H4 receptor (Homo sapiens, UniProt Q9H3N8); test: Displacement of [3H]-histamine from recombinant human H4 receptor expressed in Sf9 cell membranes co-expressing Galphai2/Gbeta1gamma2
[2] = tested on: Rattus norvegicus; test: Anti-inflammatory activity in Wistar (Krf:(WI) WU) rat model of carrageenan-induced paw edema assessed as hind paw volume at 25 mg/kg, ip administered as single dose prior to carrageenan challenge and measured after 3 hrs by plethysmometer (reference value: 130%); assay type: functional
[3] = Neurotoxicity in Albino Swiss CD-1 mouse assessed as motor impairment at 25 to 75 mg/kg, ip treated 30 mins prior to test by rotarod test; assay type: toxicity, organism-based; conditions: in vivo, 0.5 h
[4] = tested on: Mus musculus; test: (§1) Antinociceptive activity in ip dosed formalin-induced nociception pain Albino Swiss CD-1 mouse model assessed as reduction in time spent licking or biting formalin injected right hind paw in inflammatory phase pretreated followed by formalin injection and measured after 15 to 30 mins; assay type: functional; conditions: Swiss CD-1, ip
[5] = tested on: Rattus norvegicus; test: Anti-inflammatory activity in Wistar (Krf:(WI) WU) rat model of carrageenan-induced paw edema assessed as hind paw volume at 50 mg/kg, ip administered as single dose prior to carrageenan challenge and measured after 2 hrs by plethysmometer (reference value: 103%); assay type: functional
[6] = tested on: Rattus norvegicus; test: Anti-inflammatory activity in Wistar (Krf:(WI) WU) rat model of carrageenan-induced thermal hyperalgesia assessed as paw withdrawal latency time at 25 mg/kg, ip administered as single dose prior to carrageenan challenge and measured after 1 hr by plantar test (reference value: 4.79 +/- 0.99 s); assay type: functional
[7] = tested on: Rattus norvegicus; test: Anti-inflammatory activity in Wistar (Krf:(WI) WU) rat model of carrageenan-induced paw edema assessed as hind paw volume at 50 mg/kg, ip administered as single dose prior to carrageenan challenge and measured after 3 hrs by plethysmometer (reference value: 130%); assay type: functional
[8] = tested on: Rattus norvegicus; test: Anti-inflammatory activity in Wistar (Krf:(WI) WU) rat model of carrageenan-induced paw edema assessed as hind paw volume at 25 mg/kg, ip administered as single dose prior to carrageenan challenge and measured after 2 hrs by plethysmometer (reference value: 103%); assay type: functional
[9] = molecular target: Histamine H1 receptor (Cavia porcellus) (UniProt P31389); test: Agonist activity at histamine H1 receptor in guinea-pig ileum assessed as induction of contractions after 15 mins; assay type: tissue-based
[10] = tested on: Mus musculus; test: as §1, with “in” for “in ip dosed”, “phase at 50 mg/kg, ip” for “phase”, “mins relative to control” for “mins”; assay type: functional; set-up: scale not given: the % may be the effect or the level left
[11] = tested on: Rattus norvegicus; test: Anti-inflammatory activity in Wistar (Krf:(WI) WU) rat model of carrageenan-induced paw edema assessed as hind paw volume at 12.5 mg/kg, ip administered as single dose prior to carrageenan challenge and measured after 2 hrs by plethysmometer (reference value: 103%); assay type: functional
[12] = molecular target: T1, Histamine H4 receptor; conditions: Sf9
[13] = tested on: Mus musculus; test: Antinociceptive activity in formalin-induced nociception pain Albino Swiss CD-1 mouse model assessed as reduction in time spent licking or biting formalin injected right hind paw in early phase at 75 mg/kg, ip pretreated followed by formalin injection and measured up to 5 mins; assay type: functional, organism-based
[14] = tested on: Rattus norvegicus; test: Anti-inflammatory activity in Wistar (Krf:(WI) WU) rat model of carrageenan-induced paw edema assessed as reduction in hind paw volume administered as single ip dose prior to carrageenan challenge and measured after 1 to 3 hrs by plethysmometer; assay type: functional, organism-based
[15] = tested on: Mus musculus; test: Effect on spontaneous locomotor activity in Albino Swiss CD-1 mouse assessed as decrease in number of light beam crossings at 75 mg/kg, ip treated prior to test and measured for next 30 mins relative to control; assay type: ADME, organism-based; set-up: scale not given: the % may be the effect or the level left; conditions: in vivo, 0.5 h
[16] = tested on: Rattus norvegicus; test: Anti-inflammatory activity in Wistar (Krf:(WI) WU) rat model of carrageenan-induced thermal hyperalgesia assessed as paw withdrawal latency time at 50 mg/kg, ip administered as single dose prior to carrageenan challenge and measured after 1 hr by plantar test (reference value: 4.79 +/- 0.99 s); assay type: functional
[17] = molecular target: T2, Muscarinic acetylcholine receptor M3 (Cavia porcellus, UniProt Q8VH26); test: Agonist activity at muscarinic M3 receptor in guinea-pig ileum assessed as induction of contractions after 15 mins; assay type: tissue-based; conditions: 0.25 h
[18] = molecular target: T1, Histamine H4 receptor; test: Agonist activity at recombinant human H4 receptor expressed in Sf9 cell membranes co-expressing Galphai2/Gbeta1gamma2 measured after 1 hr in presence of [35S]GTPgammaS by liquid scintillation counting method; assay type: functional
[19] = tested on: Rattus norvegicus; test: Anti-inflammatory activity in Wistar (Krf:(WI) WU) rat model of carrageenan-induced thermal hyperalgesia assessed as paw withdrawal latency time at 25 mg/kg, ip administered as single dose prior to carrageenan challenge and measured after 2 hrs by plantar test (reference value: 4.03 +/- 0.7 s); assay type: functional
[20] = tested on: Rattus norvegicus; test: Anti-inflammatory activity in Wistar (Krf:(WI) WU) rat model of carrageenan-induced paw edema assessed as hind paw volume at 25 mg/kg, ip administered as single dose prior to carrageenan challenge and measured after 1 hr by plethysmometer (reference value: 49%); assay type: functional
[21] = molecular target: T1, Histamine H4 receptor; test: Antagonist activity at recombinant human H4 receptor expressed in CHOK1 cells co-expressing Galpha16/aequorin assessed as inhibition of histamine-induced intracellular calcium flux preincubated for 30 mins followed by histamine addition and measured for 30 secs in presence of coelenterazine by luminescence assay; assay type: functional, cell-based
[22] = tested on: Rattus norvegicus; test: Anti-inflammatory activity in Wistar (Krf:(WI) WU) rat model of carrageenan-induced paw edema assessed as hind paw volume at 12.5 mg/kg, ip administered as single dose prior to carrageenan challenge and measured after 1 hr by plethysmometer (reference value: 49%); assay type: functional
[23] = tested on: Rattus norvegicus; test: Anti-inflammatory activity in Wistar (Krf:(WI) WU) rat model of carrageenan-induced thermal hyperalgesia assessed as paw withdrawal latency time at 25 mg/kg, ip administered as single dose prior to carrageenan challenge and measured after 3 hrs by plantar test (reference value: 3.03 +/- 0.4 s); assay type: functional
[24] = molecular target: Histamine H1 receptor (Cavia porcellus, UniProt P31389); test: Antagonist activity at histamine H1 receptor in guinea-pig ileum assessed as inhibition of histamine-induced contractions after 15 mins; assay type: tissue-based; conditions: read-out: pA2 (converted)
[25] = tested on: Rattus norvegicus; test: Anti-inflammatory activity in Wistar (Krf:(WI) WU) rat model of carrageenan-induced thermal hyperalgesia assessed as paw withdrawal latency time at 50 mg/kg, ip administered as single dose prior to carrageenan challenge and measured after 2 hrs by plantar test (reference value: 4.03 +/- 0.7 s); assay type: functional
[26] = tested on: Mus musculus; test: Effect on spontaneous locomotor activity in Albino Swiss CD-1 mouse assessed as change in number of light beam crossings at 25 to 50 mg/kg, ip treated prior to test and measured for next 30 mins; assay type: ADME, organism-based; conditions: in vivo, 0.5 h
[27] = tested on: Rattus norvegicus; test: Anti-inflammatory activity in Wistar (Krf:(WI) WU) rat model of carrageenan-induced thermal hyperalgesia assessed as paw withdrawal latency time at 50 mg/kg, ip administered as single dose prior to carrageenan challenge and measured after 3 hrs by plantar test (reference value: 3.03 +/- 0.4 s); assay type: functional
[28] = molecular target: T2, Muscarinic acetylcholine receptor M3; test: Antagonist activity at muscarinic M3 receptor in guinea-pig ileum assessed as inhibition of carbachol-induced contractions after 15 mins; assay type: tissue-based; conditions: read-out: pA2 (converted)
[29] = tested on: Rattus norvegicus; test: Anti-inflammatory activity in Wistar (Krf:(WI) WU) rat model of carrageenan-induced mechanical hyperalgesia assessed as increase in paw withdrawal threshold at 12.5 to 50 mg/kg, ip administered as single dose prior to carrageenan challenge and measured after 3 hrs; assay type: functional, organism-based
[30] = tested on: Rattus norvegicus; test: Anti-inflammatory activity in Wistar (Krf:(WI) WU) rat model of carrageenan-induced paw edema assessed as hind paw volume at 12.5 mg/kg, ip administered as single dose prior to carrageenan challenge and measured after 3 hrs by plethysmometer (reference value: 130%); assay type: functional
[31] = molecular target: T1, Histamine H4 receptor; test: Agonist activity at recombinant human H4 receptor expressed in CHOK1 cells co-expressing Galpha16/aequorin assessed as increase in intracellular calcium flux incubated for 1 hr measured for 30 secs in presence of coelenterazine by luminescence assay; assay type: functional, cell-based
[32] = tested on: Rattus norvegicus; test: Anti-inflammatory activity in Wistar (Krf:(WI) WU) rat model of carrageenan-induced paw edema assessed as hind paw volume at 50 mg/kg, ip administered as single dose prior to carrageenan challenge and measured after 1 hr by plethysmometer (reference value: 49%); assay type: functional
[33] = tested on: Mus musculus; test: as §1, with “in” for “in ip dosed”, “phase at 25 mg/kg, ip” for “phase”, “mins relative to control” for “mins”; assay type: functional; set-up: scale not given: the % may be the effect or the level left
[34] = tested on: Rattus norvegicus; test: Anti-inflammatory activity in Wistar (Krf:(WI) WU) rat model of carrageenan-induced mechanical hyperalgesia assessed as increase in paw withdrawal threshold at 25 mg/kg, ip administered as single dose prior to carrageenan challenge and measured after 3 hrs; assay type: functional, organism-based
[35] = tested on: Mus musculus; test: Antinociceptive activity in formalin-induced nociception pain Albino Swiss CD-1 mouse model assessed as reduction in time spent licking or biting formalin injected right hind paw in early phase at 25 mg/kg, ip pretreated followed by formalin injection and measured up to 5 mins; assay type: functional, organism-based

T1 sequence (Q9H3N8 whole entry): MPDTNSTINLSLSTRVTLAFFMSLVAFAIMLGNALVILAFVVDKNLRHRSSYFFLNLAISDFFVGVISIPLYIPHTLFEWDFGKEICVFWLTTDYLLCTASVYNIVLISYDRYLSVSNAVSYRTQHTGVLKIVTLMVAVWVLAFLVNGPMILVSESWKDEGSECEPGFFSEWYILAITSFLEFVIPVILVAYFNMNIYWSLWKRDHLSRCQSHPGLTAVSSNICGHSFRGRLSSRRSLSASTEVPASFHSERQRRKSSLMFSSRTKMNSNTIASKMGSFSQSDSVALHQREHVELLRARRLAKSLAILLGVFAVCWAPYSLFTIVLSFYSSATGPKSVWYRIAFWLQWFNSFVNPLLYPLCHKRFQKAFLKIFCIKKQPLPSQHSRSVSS
T2 sequence (Q8VH26 whole entry): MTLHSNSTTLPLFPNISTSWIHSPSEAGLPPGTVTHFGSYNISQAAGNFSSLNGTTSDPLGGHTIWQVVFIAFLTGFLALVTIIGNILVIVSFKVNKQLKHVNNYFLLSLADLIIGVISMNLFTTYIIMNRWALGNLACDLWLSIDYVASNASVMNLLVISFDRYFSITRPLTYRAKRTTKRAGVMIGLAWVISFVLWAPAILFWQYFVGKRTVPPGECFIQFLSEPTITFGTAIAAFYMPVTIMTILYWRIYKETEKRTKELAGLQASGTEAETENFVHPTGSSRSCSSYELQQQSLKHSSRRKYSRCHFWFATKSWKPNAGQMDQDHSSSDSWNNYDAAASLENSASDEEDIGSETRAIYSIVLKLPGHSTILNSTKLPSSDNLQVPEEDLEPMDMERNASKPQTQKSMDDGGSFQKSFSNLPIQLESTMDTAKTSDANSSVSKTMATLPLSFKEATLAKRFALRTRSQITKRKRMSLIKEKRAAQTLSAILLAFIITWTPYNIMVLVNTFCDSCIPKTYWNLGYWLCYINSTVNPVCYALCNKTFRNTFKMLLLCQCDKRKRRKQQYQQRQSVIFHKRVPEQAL
Sequence of Histamine H1 receptor (Cavia porcellus) (P31389 whole entry): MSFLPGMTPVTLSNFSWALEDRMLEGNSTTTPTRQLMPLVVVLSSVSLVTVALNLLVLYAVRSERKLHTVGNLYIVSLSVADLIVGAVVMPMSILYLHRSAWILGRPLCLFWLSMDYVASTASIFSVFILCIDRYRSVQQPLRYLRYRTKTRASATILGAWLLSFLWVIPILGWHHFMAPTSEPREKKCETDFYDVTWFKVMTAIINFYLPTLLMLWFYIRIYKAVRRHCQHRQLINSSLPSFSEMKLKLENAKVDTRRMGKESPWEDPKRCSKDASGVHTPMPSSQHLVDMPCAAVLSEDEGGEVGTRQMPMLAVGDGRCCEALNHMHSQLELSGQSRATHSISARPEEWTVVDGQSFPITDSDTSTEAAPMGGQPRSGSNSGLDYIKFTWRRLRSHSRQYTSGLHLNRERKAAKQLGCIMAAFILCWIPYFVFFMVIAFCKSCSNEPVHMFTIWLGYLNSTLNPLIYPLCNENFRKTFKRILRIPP
Sequence of Histamine H1 receptor (P31389 whole entry): as above

CN1CCN(c2nc(N)nc(CC(C)(C)C)n2)CC1
Ki [1]: 247 nM

CC(C)Cc1nc(N)nc(N2CCN(C)CC2)n1
Ki [1]: 529 nM

CN1CCN(c2nc(N)nc(CCCC3CCCCC3)n2)CC1
Ki [1]: > 10000 nM

CN1CCN(c2nc(N)nc(CCC3CCCCC3)n2)CC1
Ki [1]: 2850 nM

CN1CCN(c2nc(N)nc(CC3CCCCC3)n2)CC1
Activity [2]: 84.3%
Activity [3]: Non-Toxic
ED50 [4]: 54.8 mg/kg
Activity [5]: 21.73%
Time [6]: <=10.49 s
Activity [7]: 57.37%
Activity [8]: 41.3%
Activity [9]: inactive
Activity [10]: 59.83%
Activity [11]: 53.77%
pKb [12]: 6.67 to 6.7
Activity [13]: Active
Activity [14]: Dose-dependent effect
Activity [15]: 23.84%
Time [16]: 9.43 s
Activity [17]: Not Active
Activity [18]: inactive
Time [19]: 9.78 s
Activity [20]: 19.56%
Ki [1]: 160 nM
IC50 [21]: 32 nM
Activity [22]: 25.47%
Time [23]: 7.06 s
Kb [24]: 1230 nM
Time [25]: 10.05 s
Activity [26]: Non-Toxic
Time [27]: 9.03 s
Kb [28]: 2040 nM
Activity [29]: Active
Activity [30]: 83.96%
Activity [31]: inactive
Activity [32]: 8.69%

COCc1nc(N)nc(N2CCN(C)CC2)n1
Ki [1]: > 10000 nM

CCCc1nc(N)nc(N2CCN(C)CC2)n1
Ki [1]: 185 nM
IC50 [21]: 265 nM
Activity [31]: inactive

Cc1nc(N)nc(N2CCN(C)CC2)n1
Ki [1]: 2660 nM

CCC(C)c1nc(N)nc(N2CCN(C)CC2)n1 (stereo not given)
Ki [1]: 725 nM

CN1CCN(C(=O)c2cc3cc(Cl)ccc3[nH]2)CC1 [JNJ-7777120]
Activity [2]: 63.66%
Activity [33]: 60.68%
Time [6]: 9.14 s
Activity [8]: 47.4%
Time [19]: 8.39 s
Activity [20]: 22.11%
Activity [34]: Active
Activity [35]: inactive

CN1CCN(c2nc(N)nc(C(C)(C)C)n2)CC1
Ki [1]: 1080 nM

CC(C)c1nc(N)nc(N2CCN(C)CC2)n1
Ki [1]: 277 nM

CCC(CC)c1nc(N)nc(N2CCN(C)CC2)n1
Ki [1]: 1330 nM

CC(C)=Cc1nc(N)nc(N2CCN(C)CC2)n1
Ki [1]: 470 nM

CCc1nc(N)nc(N2CCN(C)CC2)n1
Ki [1]: 812 nM

Reference: ChEMBL document CHEMBL4480422, “Alkyl derivatives of 1,3,5-triazine as histamine H4 receptor ligands” (Bioorg Med Chem, 2019)
